Data from patent US7671165B2, “Method of forming polycarbonate” (Sabic Innovative Plastics IP B.V., priority 2008, dated 2010).
One block for each compound: values may come before it.

Legend:
[1] = Solubility of reaction components and additives in MS; type: physicochemical
[2] = Solubility of catalysts in MS and co-solvents

SMILES: CC(C)(c1ccccc1)c1ccc(O)cc1 [Para-Cumyl Phenol]
Stable at T (room) for: [1]: >24 h | Solubility in MS, T (room) ([1]; 4.1 wt %, 0.5 g in 10 ml MS): Dissolved | Solubility in MS, T (room) ([1]; 17.5 wt %, 2.5 g in 10 ml MS): Dissolved | Solubility in MS, T (room) ([1]; 29.7 wt %, 5 g in 10 ml MS): Dissolved

SMILES: CC(C)(C)c1ccc(OP(Oc2ccc(C(C)(C)C)cc2C(C)(C)C)Oc2ccc(C(C)(C)C)cc2C(C)(C)C)c(C(C)(C)C)c1 [Irgafos 168]
Solubility in MS, T (room) ([1]; 0.8 wt %, 0.1 g in 10 ml MS): Dissolved | Solubility in MS, T (50° C.) ([1]; 4.1 wt %, 0.5 g in 10 ml MS): Dissolved | Stable at T (room) for: ([1]; solution in MS, 0.8 wt %): 5 h | Stable at T (room) for: ([1]; solution in MS, 4.1 wt %): <2 h

SMILES: CC(=O)[O-].CCCC[N+](CCCC)(CCCC)CCCC [Tetra Butyl Ammonium Acetate]
Stable at T (room) for: ([2]; 2.47 wt %, 10.0 ml MS, no co-solvent): >72 h

SMILES: O=C(Oc1ccccc1)Oc1ccccc1 [Diphenyl Carbonate]
Solubility in MS, T (90° C.) ([1]; 4.1 wt %, 0.5 g in 10 ml MS): Dissolved | Stable at T (room) for: ([1]; solution in MS, 4.1 wt %): >24 h

SMILES: CC(=O)[O-].[Cs+] [CS-Acetate]
Solubility of catalyst, T (room) ([2]; 0.79 wt %, 0.1 g, 10.0 ml MS + 1.0 ml MeOH): Dissolved | Stable at T (room) for: ([2]; 0.79 wt %, 10.0 ml MS + 1.0 ml MeOH): >24 h

Results, then the compound that gave them:

Solubility in MS, T (90° C.) ([1]; 4.1 wt %, 0.5 g in 10 ml MS): Dissolved | Solubility in MS, T (100° C.) ([1]; 17.5 wt %, 2.5 g in 10 ml MS): Dissolved | Stable at T (room) for: ([1]; solution in MS, 4.1 wt %): >24 h | Stable at T (room) for: ([1]; solution in MS, 17.5 wt %): >24 h
SMILES: COC(=O)c1ccccc1OC(=O)Oc1ccccc1C(=O)OC [BMSC, bismethylsalicylcarbonate]

Solubility in MS, T (90° C.) ([1]; 0.8 wt %, 0.1 g in 10 ml MS): Dissolved | Stable at T (room) for: ([1]; solution in MS, 0.8 wt %, result in words): Crystalized
SMILES: O=C(O)CCCCCCCCCCCCC(=O)O [1,12-Dodecanedicarboxylic acid]

Solubility in MS, T (room) ([1]; 0.8 wt %, 0.1 g in 10 ml MS): Dissolved | Solubility in MS, T (90° C.) ([1]; 7.8 wt %, 1 g in 10 ml MS): Dissolved
SMILES: Cc1cc(O)ccc1O [Methyl hydroquinone]

Solubility in MS, T (room) ([1]; 0.8 wt %, 0.1 g in 10 ml MS): Dissolved | Solubility in MS, T (room) ([1]; 4.1 wt %, 0.5 g in 10 ml MS): Dissolved | Stable at T (room) for: ([1]; solution in MS, 0.8 wt %): >48 h | Stable at T (room) for: ([1]; solution in MS, 4.1 wt %): >24 h
SMILES: O[C@@H]1CO[C@H]2[C@@H]1OC[C@@H]2O [Isosorbide, 1,4:3,6-dianhydro-D-sorbitol]

Stable at T (room) for: ([1]; solution in MS, 0.8 wt %): >48 h | Stable at T (room) for: ([1]; solution in MS, 7.8 wt %): >24 h
SMILES: Oc1cccc(O)c1 [Resorcinol]
